What all share (assay): NCI tumour cell line growth inhibition, 48 h
Experiment [1] concerns SK-OV-3 ovarian.
Experiment [2] relates to CCRF-CEM leukemia.
The subject of experiment [3] is LOX IMVI melanoma.
Experiment [4] concerns M14 melanoma.
Experiment [5] deals with NCI-H522 lung.
For experiment [6], the system named is A549 NSCLC.
For experiment [7], the system named is NCI/ADR-RES ovarian.
Experiment [8] concerns MDA-N.
Experiment [9] concerns DU-145 prostate.
In experiment [10] the test system is NCI-H226 lung.

Among the data in PubChem BioAssay (NCI) are TGI and GI50 values, retold here.

Each structure is given as a SMILES string. Where “and” joins values, the source holds several entries; their conditions need not be identical. Equal entries are not always repeated.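 Where inhibition never reached the appropriate level, the endpoint shown equals the highest concentration tested. Otherwise, values were interpolated linearly from a five-concentration, 48-hour dose response in 96-well plates. Here, GI50 denotes the concentration required for 50% inhibition of growth. TGI marks complete inhibition of growth.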

Turning to `Nc1nc(SCc2ccccc2Cl)c2[nH]cnc2n1`, the TGI in [1], in experiment [2], in experiment [3], in experiment [4], in experiment [5] and in experiment [6] was over 100 µM throughout.

Take `CCC(=O)OCN(C)c1nc(N(C)COC(=O)CC)nc(N(C)COC(=O)CC)n1`: the TGI in [1] is over 100 µM; in experiment [2] it was over 100 µM; in experiment [3] it was 70.3 µM; in [7], over 100 µM; in experiment [8] it was over 100 µM; in [9] it was over 100 µM. Also, the TGI in experiment [4] is 77.3 µM; in experiment [10] it was over 100 µM.

Consider `Cc1c2ccc3ccccc3c2c[n+]2ccccc12`, for which the TGI in experiment [1] is 83.2 µM; in experiment [2], 37.2 µM; in experiment [3] it was over 78.4 µM; in experiment [7], over 100 µM; in experiment [8], 19.8 µM; in experiment [9], over 76 µM. For the same compound, the TGI was 37.5 µM in [4], 14.7 µM in experiment [5], over 100 µM in experiment [6] and 20.1 µM in experiment [10].

With `CCCC(=O)[O-].CCCC(=O)[O-].NCCN.NCCN.[Co+3].[O-][Cl+3]([O-])([O-])[O-]`, the TGI in experiment [1], in [2], in [3], in [4], in [5] and in experiment [6] was over 100 µM in each case.

With `CCCO[C@@H]1[C@@H](OC(C)=O)[C@@H](OC(C)=O)C(C)(C)/C=C/[C@H](C)C(=O)[C@@]2(OC(C)=O)C[C@@](C)(OC(C)=O)[C@H](OC(C)=O)[C@@H]2[C@H]2OC(=O)CC[C@@]12OC(=O)c1ccccc1`, the TGI in experiment [1], in [2], in experiment [3], in [7], in experiment [8] and in experiment [9] was over 25 µM in each case. Moreover, the TGI in experiment [4], in experiment [5] and in experiment [10] was over 25 µM in each case.

`CNC(C)C(O)c1ccc2oc3cc(=O)c4ccccc4c-3nc2c1` (configuration not stated): the TGI in experiment [1] is over 100 µM; in experiment [2], 47 µM; in experiment [3], 26.7 µM; in [7], over 100 µM; in experiment [9], 18 µM; in [4], 16.1 µM. The TGI in experiment [5] was 33.7 µM; in [6], over 100 µM.

On to `N[C@H](Cc1ccc2oc3cc(=O)c4ccccc4c-3nc2c1)C(=O)O`, for which the TGI in [1] is over 100 µM; in experiment [2], 56.2 µM; in experiment [3], over 100 µM; in experiment [7] it was over 100 µM; in [8] it was 38.1 µM; in experiment [9], 51.7 µM. For the same compound, the TGI is 39.9 µM in experiment [4], over 100 µM in experiment [5], over 100 µM in experiment [6] and over 100 µM in experiment [10].

Regarding `O=C1c2ccccc2OCC12OC21C=CC(Cl)=CC1` (configuration not stated), the TGI in [1] was over 100 µM; in experiment [3], 30.4 µM; in experiment [7], 50.1 µM; in [8], 43.8 µM; in experiment [9] it was 38.6 µM; in [4], over 100 µM. In addition, the results for the TGI in experiment [6] and in experiment [10] were 56.6 µM and over 100 µM, respectively.

For `N#Cc1cc2c(cc1Cl)Sc1nnc(Nc3ccccc3)n1S2(=O)=O`, the TGI was 17.3 µM in [1]; over 24 µM in experiment [2]; 3.75 µM in [3]; 3.43 µM in [7]; 5.2 µM in [9]; 4.78 µM in experiment [4]. Further, the TGI in [5] came to 4.33 µM; in experiment [6] it was 16 µM; in [10] it was 5.99 µM.

On to `CCCn1cnc2c(SCc3ccc(Cl)cc3)nc(N)nc21`, for which the TGI in experiment [1] is over 100 µM; in experiment [2], over 100 µM; in experiment [3], 50.8 µM; in experiment [7], 73.2 µM; in experiment [8], 55 µM; in [9] it was over 100 µM. Besides, the TGI in experiment [4] was 81.5 µM; in experiment [5], 36.9 µM; in [6] it was over 100 µM.

On to `C/C(=N\NC(=S)N1CCCC1)c1nc2ncccc2[nH]1`, for which the TGI in [1] is 54.2 µM; in [2], 1.1 µM; in experiment [3], 13.1 µM; in experiment [7] it was over 100 µM; in [8] it was over 100 µM; in experiment [9], 13.1 µM. Also, the TGI in [4] is 31.3 µM; in experiment [5], 30.2 µM; in experiment [6], over 100 µM; in experiment [10], 4.31 µM.

As to `Cc1ccc(CSC(N)=Nc2ccccc2)cc1C`, the TGI is 54.7 µM in [1]; over 100 µM in [2]; 36.2 µM in [3]; 52.8 µM in experiment [7]; 43.8 µM in [8]; 55.4 µM in experiment [9]. Also, the TGI is 41.2 µM in experiment [4], 35.4 µM in [5], over 100 µM in [6] and 43 µM in [10].

As to `COc1ccc(C2COc3c(ccc(O)c3C)C2)cc1OC` (configuration not stated), the TGI is over 200 µM in [1]; over 200 µM in experiment [2]; 128 µM in experiment [3]; over 200 µM in experiment [7]; 142 µM in experiment [5]; over 167 µM in [6]. The same compound had a TGI in experiment [10] of over 139 µM.

With `CCOC(=O)c1c(OCC)[nH]c(=O)c(C(c2cccs2)c2c(O)c(C(=O)OCC)c(OCC)[nH]c2=O)c1O`, the TGI in experiment [2] was over 100 µM; in experiment [3], 30.7 µM; in [7] it was over 100 µM; in [9], 26.9 µM; in [4] it was 35.6 µM; in experiment [5], 27.6 µM. Also, the TGI is 32.8 µM in experiment [6] and 27.4 µM in [10].

Take `Cc1nc2ccc(S(=O)(=O)Nc3nccs3)cc2c(=O)n1NS(=O)(=O)c1nccs1`: the TGI in [1], in [2], in experiment [7], in experiment [8], in [9] and in [4] was over 100 µM in each case. Also, the TGI in experiment [5] and in experiment [10] was over 100 µM each time.

Take `COC(=O)C1=C(OC)[C@H]2C#C/C=C\C#C[C@@H]3Nc4c(cc(O)c5c4C(=O)c4ccccc4C5=O)[C@]24O[C@@]34[C@H]1C`: the TGI is under 0.01 µM in experiment [2]; under 0.01 µM in [3]; under 0.01 µM in experiment [7]; 0.0113 µM in [8]; under 0.01 µM in experiment [9]; under 0.01 µM in [4]. Moreover, the figures for the TGI in experiment [5], in experiment [6] and in [10] were 0.0177 µM, 0.111 µM and under 0.01 µM, respectively.

On to `COc1ccc(CNc2nc(NC3CCCCC3)nc(NC3CCCCC3)n2)cc1`, for which the TGI was over 100 µM in [1]; over 100 µM in experiment [2]; 4.44 µM in [3]; over 100 µM in experiment [7]; over 100 µM in [9]; over 100 µM in [4]. The TGI in [5] is 28.8 µM; in experiment [6] it was over 100 µM; in [10], 15.5 µM.

For `CN(C)CCCNc1ccc2ncn3c4ccc(O)cc4c(=O)c1c23`, the TGI in experiment [1] was 15.1 µM; in experiment [2], 32.6 µM; in [3] it was 3.13 µM; in experiment [7] it was over 100 µM; in [8], 17.6 µM; in [9], 21.2 µM. Besides, the TGI is 16.4 µM in experiment [4], 3.16 µM in experiment [5], 5.82 µM in experiment [6] and 3.59 µM in experiment [10].

Regarding `O=C(CBr)c1ccc2cc(Br)c3ccccc3c2c1`, the TGI is over 100 µM in experiment [2]; over 100 µM in [3]; over 100 µM in experiment [7]; 46.4 µM in [9]; 84 µM in experiment [4]; 37.6 µM in experiment [5]. Further, the TGI in experiment [6] was determined as 76.7 µM; in [10] it was 33.6 µM.

As for `C[n+]1c2ccccc2c(NC(CCCN=C(N)N)C(=O)O)c2ccccc21` (configuration not stated), the TGI in experiment [1], in experiment [4], in experiment [5], in experiment [6] and in experiment [10] was over 100 µM throughout.

Consider `O=C(N[C@@H](Cc1coc2ccccc12)B(O)O)[C@@H]1C[C@H]2CC[C@@H]1O2`, for which the GI50 in experiment [1] was 9.17 µM; in [2], 1.2 µM; in experiment [3] it was 5.21 µM; in [7], 48 µM; in [9], 7.5 µM; in experiment [4], 3.01 µM. The GI50 in [5] was 5.04 µM; in experiment [6] it was 7.58 µM; in experiment [10] it was 1.13 µM. Besides, the TGI in experiment [1] is over 100 µM; in experiment [2], over 100 µM; in [3], 34.5 µM; in experiment [7], over 100 µM; in experiment [9] it was over 100 µM; in experiment [4], 82.7 µM. The values for the TGI in experiment [5], in [6] and in experiment [10] were 81.6 µM, over 100 µM and 2.76 µM, respectively.

With `COc1ccc(/C=N/n2cnc3c(c2=O)SC(=C(C#N)C#N)N3c2ccccc2)cc1`, the TGI in [1], in experiment [2], in experiment [5], in experiment [6] and in experiment [10] was over 100 µM in each case.

`CCC1CC(O)c2c(O)c3c(c(O)c2C1O)C(=O)c1cccc(O)c1C3=O` (configuration not stated) (tested in a mixture with another compound): the GI50 in experiment [1] is 0.0111 µM; in [7], 0.0101 µM. Besides, the TGI in [1] was 5.7 µM; in experiment [2], 0.085 µM and 0.0441 µM; in experiment [3], 0.0509 µM; in experiment [7], 0.295 µM; in experiment [8], 0.093 µM and 0.0639 µM; in experiment [9], 0.135 µM and 0.651 µM. In addition, the TGI is 0.0434 µM and 0.0173 µM in [4]; 0.0658 µM in experiment [5]; 0.0532 µM in [10].

Consider `C=CCCC1(C)CCCNC1=S` (configuration not stated), for which the TGI in [1], in experiment [2], in experiment [3], in experiment [4], in [6] and in [10] was over 100 µM in each case.
